Laboratory results taken from patent publication US20100292327A1, “TREATMENT OF ASPIRIN RESISTANCE WITH BETAINE AND/OR BETAINE ENRICHED MOLASSES” (priority 2007, published 2010).
Where “and” joins values, the source holds several entries; their conditions need not be identical. Identical values can stand only once. Like-named read-outs stand apart in the source and are kept apart here.

Columns and labels:
[1] = system: platelet aggregation in whole blood, activation by TRAP-6; experiment: Multiplate whole blood aggregometry, TRAP test, blood supplemented with betaine (Example 1); format: cell-based, human (CAD patients); parameters: TRAP aggregation / TRAP aggregation, mean: unit not given here; conditions: for TRAP aggregation / TRAP aggregation, mean: betaine 50 μg/ml; for inhibition at 50 µg/mL: Homo sapiens, Platelet, betaine 50 μg/ml vs. saline
Experimental: (§1) Protocol Blood of 24 CAD patients on Aspirin or Aspirin+Clopidogrel is supplemented with saline or Betaine (50 μg/ml) and tested for Whole Blood Aggregometry using a Multiplate® (Dynabyte Informations System GmbH, Munich) whole blood aggregometer different agonists where used i.e.:
(§2) ASPI test: Activation by arachidonic acid to detect Aspirin effects. COL test: Collagen activates the collagen receptor, which leads to a release of endogenous arachidonic acid, which is converted to TXA2 and activates the platelet. ADP test: ADP stimulates platelet activation by the ADP receptors. The most important ADP receptor (P2Y12) is blocked by clopidogrel, prasugrel and ticlopidine. TRAP test: TRAP-6 stimulates the thrombin receptor on the platelet surface. TRAP test allows detecting GPIIb/IIIa antagonists.

[2] = system: whole blood aggregation, Collagen; experiment: Whole blood aggregation (Multiplate) COL test before and one hour after oral betaine (Example 11); format: in vivo, human (patients); conditions: for Collagen aggregation (AUC): individual patients (one line per patient), one hour after 4 g betaine oral, on aspirin 100 mg/day
Experimental: (§3) 20 patients attending Hospital cardiovascular consultation were enrolled for the study. Patients were all on 100 mg/day aspirin for their cardiovascular protection. Necessary ethical clearance was obtained from Hospital IRB.
(§4) Whole blood aggregation profile using Multiplate® instrument was assessed for each patient before and one hour after oral administration of 4 g of betaine. Blood was sampled on hirudin as anticoagulant.
(§5) Using the different test procedures available for the Multiplate® comprehensive information on platelet function and antiplatelet effects of betaine vs. basal values was assessed. Agonists were prepared in 1 ml solutions according to Multiplatc technical sheets and were used in the following volumes or concentrations: ASPI test: 20 μL, COL test: 20 μL, TRAP test: 20 μL, ADP test: 20 μL, RISTO test: 40 μL (1.2 mg/ml).

[3] = system: whole blood aggregation, AspiTest (arachidonic acid); experiment: Whole blood aggregation (Multiplate) ASPI test before and one hour after oral betaine (Example 11); format: in vivo, human (patients); conditions: for AspiTest aggregation (AUC): individual patients (one line per patient), one hour after 4 g betaine oral, on aspirin 100 mg/day
Experimental: as §3, §4, §5

[4] = system: platelet aggregation in whole blood, activation by collagen; experiment: Multiplate whole blood aggregometry, COL test, blood supplemented with betaine (Example 1); format: cell-based, human (CAD patients); parameters: Collagen aggregation / Collagen aggregation, mean: unit not given here; conditions: for Collagen aggregation / Collagen aggregation, mean: betaine 50 μg/ml; for inhibition at 50 µg/mL: Homo sapiens, Platelet
Experimental: as §1, §2

[5] = system: whole blood aggregation, Ristocetin; experiment: Whole blood aggregation (Multiplate) RISTO test before and one hour after oral betaine (Example 11); format: in vivo, human (patients); conditions: for Ristocetin aggregation (AUC): individual patients (one line per patient), one hour after 4 g betaine oral, on aspirin 100 mg/day
Experimental: as §3, §4, §5

[6] = system: platelet aggregation in whole blood, activation by arachidonic acid; experiment: Multiplate whole blood aggregometry, ASPI test, blood supplemented with betaine (Example 1); format: cell-based, human (CAD patients); parameters: AspiTest aggregation / AspiTest aggregation, mean: unit not given here; conditions: for AspiTest aggregation / AspiTest aggregation, mean: betaine 50 μg/ml; for inhibition at 50 µg/mL: Homo sapiens, Platelet
Experimental: as §1, §2

[7] = system: whole blood aggregation, TRAP test; experiment: Whole blood aggregation (Multiplate) TRAP test before and one hour after oral betaine (Example 11); format: in vivo, human (patients); conditions: for TRAP aggregation (AUC): individual patients (one line per patient), one hour after 4 g betaine oral, on aspirin 100 mg/day
Experimental: as §3, §4, §5

[8] = system: platelet aggregation in whole blood, activation by ADP; experiment: Multiplate whole blood aggregometry, ADP test, blood supplemented with betaine (Example 1); format: cell-based, human (CAD patients); parameters: ADP aggregation / ADP aggregation, mean: unit not given here; conditions: for ADP aggregation / ADP aggregation, mean: betaine 50 μg/ml; for inhibition at 50 µg/mL: Homo sapiens, Platelet, betaine 50 μg/ml vs. saline
Experimental: as §1, §2

[9] = system: whole blood aggregation, ADP; experiment: Whole blood aggregation (Multiplate) ADP test before and one hour after oral betaine (Example 11); format: in vivo, human (patients); conditions: for ADP aggregation (AUC): individual patients (one line per patient), one hour after 4 g betaine oral, on aspirin 100 mg/day
Experimental: as §3, §4, §5

[10] = ASA and ASA/clopidogrel non responders, individual patients (one line per patient)
[11] = individual patients # 1-24 (one line per patient), blood of CAD patients on aspirin or aspirin+clopidogrel
[12] = ASA poor responders, after 4 g betaine oral
[13] = after 4 g betaine oral, patients on aspirin 100 mg/day
[14] = betaine 50 μg/ml vs. saline, p<0.05
[15] = 20 patients, after 4 g betaine by oral route
[16] = ASA responders, after 4 g betaine oral

In the case of `C[N+](C)(C)CC(=O)O` [betaine, glycine betaine of formula (CH3)3N^+(CH2) COO^−], the TRAP aggregation [1, 10] is reported as 155 and 141 and 93 and 179 and 120 and 100 and 67 and 103 (2×) and 29, the inhibition at 50 µg/mL ([1]; ASA and ASA/clopidogrel non responders, P (Student) 0.093, read-out: Additional inhibition, TRAP) is reported as 19% and the inhibition at 50 µg/mL ([1]; all patients, P (Student) 0.0392, read-out: Betaine additional inhibition, TRAP) is reported as 13%. For the same molecule, the TRAP aggregation [1, 11] was 60 (2×) and 102 and 79 and 67 and 103 (2×) and 87 and 84 and 31 and 153 and 152 and 29 and 155 and 141 and 83 and 30 and 22 and 93 and 179 and 120 and 100 and 127, the “TRAP aggregation, mean” value ([1]; mean of 10 ASA and ASA/clopidogrel non responders, saline mean 133.7) was 109 and the “TRAP aggregation, mean” value ([1]; mean of patients, saline mean 108) was 93.91. The “Difference Vs. basal, Collagen” value ([2]; 20 patients, after 4 g betaine by oral route, P Student 0.045) was −19%, the “Mean of AUC aggregations, Collagen” value ([2]; 20 patients, after 4 g betaine by oral route, basal mean 30.35) was 24.65 and the “Difference Vs. basal, Collagen” value [2, 12] was −1%. For the same molecule, the “Collagen aggregation (AUC)” value ([2]; ASA poor responders) was 47 and 48 and 32 and 18 and 10 and 58 and 65 and 57, the “Difference Vs. basal, Collagen” value ([2]; ASA responders, after 4 g betaine oral, P Student 0.039) was −41% and the “Collagen aggregation (AUC)” value ([2]; ASA responders) was 11 and 7 and 29 and 12 and 23 and 4 and 10 (2×) and 3 (2×) and 30 and 16. The “effect on platelet function, collagen aggregation” value [2, 13] was “ameliorated significantly”, the “Collagen aggregation, mean” value ([2]; mean of 8 ASA poor responders after 4 g betaine oral, basal mean 42.375) was 41.875 and the “Collagen aggregation, mean” value ([2]; mean of 12 ASA responders after 4 g betaine oral, basal mean 22.33) was 13.17. For the same molecule, the “Difference Vs. basal, AspiTest” value ([3]; 20 patients, after 4 g betaine by oral route, P Student 0.57) was 5%, the “Mean of AUC aggregations, AspiTest” value ([3]; 20 patients, after 4 g betaine by oral route, basal mean 23.05) was 24.15 and the “Difference Vs. basal, AspiTest” value [3, 12] was 3%. The “AspiTest aggregation (AUC)” value ([3]; ASA poor responders) was 24 and 74 and 81 and 69 and 46 and 27 and 35 and 52, the “Difference Vs. basal, AspiTest” value ([3]; ASA responders, after 4 g betaine oral, P Student 0.6) was 14% and the “AspiTest aggregation (AUC)” value ([3]; ASA responders) was 11 and 7 and 4 (2×) and 9 (2×) and 5 and 1 and 3 (2×) and 6 and 13. The “AspiTest aggregation, mean” value ([3]; mean of 8 ASA poor responders after 4 g betaine oral, basal mean 49.375) was 51, the “AspiTest aggregation, mean” value ([3]; mean of 12 ASA responders after 4 g betaine oral, basal mean 5.5) was 6.25 and the Collagen aggregation [4, 10] was 42 and 30 and 76 and 91 (2×) and 75 (2×) and 88 and 21 and 24. For the same molecule, the inhibition at 50 µg/mL ([4]; ASA and ASA/clopidogrel non responders, betaine 50 μg/ml vs. saline, P (Student) 0.0242, read-out: Additional inhibition, Collagen) was 17%, the inhibition at 50 µg/mL ([4]; all 24 patients, betaine 50 μg/ml vs. saline, P (Student) 0.0006, read-out: Betaine additional inhibition, Collagen) was 20% and the “synergistic effect with aspirin and/or clopidogrel on collagen” value [4, 14] was “significant”. For the same molecule, the Collagen aggregation [4, 11] was 4 and 3 (2×) and 35 and 21 (2×) and 75 (2×) and 91 (2×) and 26 and 34 and 29 and 59 and 25 and 24 and 42 and 2 and 30 and 8 and 17 and 76 and 88 and 46, the “Collagen aggregation, mean” value ([4]; mean of 10 ASA and ASA/clopidogrel non responders, saline mean 74.4) was 61.3 and the “Collagen aggregation, mean” value ([4]; mean of 24 patients, saline mean 48.46) was 38.54. For the same molecule, the “Difference Vs. basal, Ristocetin” value ([5]; 20 patients, after 4 g betaine by oral route, P Student 0.012) was −37%, the “Mean of AUC aggregations, Ristocetin” value ([5]; 20 patients, after 4 g betaine by oral route, basal mean 53.4) was 33.6 and the “Difference Vs. basal, Ristocetin” value ([5]; ASA poor responders, after 4 g betaine oral, P Student 0.22) was −24%. For the same molecule, the “Ristocetin aggregation (AUC)” value ([5]; ASA poor responders) was 62 and 78 and 123 and 81 and 30 and 2 and 43 and 11, the “Difference Vs. basal, Ristocetin” value ([5]; ASA responders, after 4 g betaine oral, P Student 0.031) was −52% and the “Ristocetin aggregation (AUC)” value ([5]; ASA responders) was 39 and 10 and 42 and 23 and 35 and 6 and 3 and 21 and 14 (2×) and 26 and 9. The “effect on platelet function, ristocetin aggregation (agglutination)” value [5, 13] was “ameliorated significantly”, the “Ristocetin aggregation, mean” value ([5]; mean of 8 ASA poor responders after 4 g betaine oral, basal mean 70.75) was 53.75 and the “Ristocetin aggregation, mean” value ([5]; mean of 12 ASA responders after 4 g betaine oral, basal mean 41.83) was 20.17. The AspiTest aggregation [6, 10] was 121 and 75 and 97 and 125 and 87 and 94 (2×) and 84 and 49 and 61, the inhibition at 50 µg/mL ([6]; ASA and ASA/clopidogrel non responders, betaine 50 μg/ml vs. saline, P (Student) 0.0043, read-out: Additional inhibition, AspiTest) was 20% and the inhibition at 50 µg/mL ([6]; all 24 patients, betaine 50 μg/ml vs. saline, P (Student) 0.0109, read-out: Betaine additional inhibition, AspiTest) was 17%. The “synergistic effect with aspirin and/or clopidogrel on AspiTest” value [6, 14] was “significant”, the AspiTest aggregation [6, 11] was 10 and 22 and 54 and 18 and 84 and 94 (2×) and 62 and 29 and 21 and 49 and 17 (2×) and 5 and 61 and 121 and 13 and 75 and 12 and 6 and 97 and 125 and 87 and 77 and the “AspiTest aggregation, mean” value ([6]; mean of 10 ASA and ASA/clopidogrel non responders, saline mean 111.1) was 88.7. For the same molecule, the “AspiTest aggregation, mean” value ([6]; mean of 24 patients, saline mean 62.54) was 52.08, the “Difference Vs. basal, TRAP” value [7, 15] was 0% and the “Mean of AUC aggregations, TRAP” value ([7]; 20 patients, after 4 g betaine by oral route, basal mean 91.95) was 91.9. For the same molecule, the “Difference Vs. basal, TRAP” value [7, 12] was 3%, the “TRAP aggregation (AUC)” value ([7]; ASA poor responders) was 106 (2×) and 66 (2×) and 133 and 103 and 60 and 95 and the “Difference Vs. basal, TRAP” value [7, 16] was −2%. The “TRAP aggregation (AUC)” value ([7]; ASA responders) was 64 and 154 and 115 and 136 and 131 and 29 and 80 and 77 (2×) and 67 and 104 and 69, the “TRAP aggregation, mean” value ([7]; mean of 8 ASA poor responders after 4 g betaine oral, basal mean 89) was 91.875 and the “TRAP aggregation, mean” value ([7]; mean of 12 ASA responders after 4 g betaine oral, basal mean 93.92) was 91.92. The ADP aggregation [8, 10] was 173 and 70 and 89 (2×) and 86 and 90 and 63 and 77 and 83 and 56, the inhibition at 50 µg/mL ([8]; ASA and ASA/clopidogrel non responders, P (Student) 0.449, read-out: Additional inhibition, ADP) was 5% and the inhibition at 50 µg/mL ([8]; all patients, P (Student) 0.067, read-out: Betaine additional inhibition, ADP) was 8%. For the same molecule, the ADP aggregation [8, 11] was 44 and 1 and 68 and 46 and 63 and 77 and 82 and 57 and 83 and 100 and 81 and 56 and 173 and 4 and 70 and 29 and 6 and 13 and 89 (2×) and 86 and 90 and 115, the “ADP aggregation, mean” value ([8]; mean of 10 ASA and ASA/clopidogrel non responders, saline mean 91.8) was 87.6 and the “ADP aggregation, mean” value ([8]; mean of patients, saline mean 71.78) was 66.17. The “Difference Vs. basal, ADP” value [9, 15] was 2%, the “Mean of AUC aggregations, ADP” value ([9]; 20 patients, after 4 g betaine by oral route, basal mean 55.55) was 56.5 and the “Difference Vs. basal, ADP” value ([9]; ASA poor responders, after 4 g betaine oral, P Student 0.5) was −7%. The “ADP aggregation (AUC)” value ([9]; ASA poor responders) was 71 and 53 and 66 and 60 and 38 and 32 and 70 and 40, the “Difference Vs. basal, ADP” value [9, 16] was 8% and the “ADP aggregation (AUC)” value ([9]; ASA responders) was 2 and 121 and 64 (2×) and 80 and 93 and 14 and 51 and 47 and 44 and 75 and 45. For the same molecule, the “ADP aggregation, mean” value ([9]; mean of 8 ASA poor responders after 4 g betaine oral, basal mean 57.75) was 53.75 and the “ADP aggregation, mean” value ([9]; mean of 12 ASA responders after 4 g betaine oral, basal mean 54.08) was 58.33.
